Tests used:
human orexin-1 receptor = human orexin-1 receptor (Homo sapiens (Human), UniProt O43613); assay: In vitro assay: intracellular calcium measurements (FLIPR), antagonistic activity; assay type: cell-based; conditions: CHO cells expressing human orexin-1 receptor, orexin-A agonist, geometric mean, read-out: IC50 Ox1
In short: (§1)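 hOX1R/hOX2R CHO cells, fluo-4 AM + 5 mM probenecid, 50 min 37 °C then 30 min RT. Cpd 120 min, then orexin-A 3 nM final; FLIPR peak height vs vehicle. IC50, geometric mean of repeats.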

human orexin-2 receptor = human orexin-2 receptor (Homo sapiens (Human), UniProt O43614); assay: as above; assay type: cell-based; conditions: CHO cells expressing human orexin-2 receptor, orexin-A agonist, geometric mean, read-out: IC50 Ox2
Sequence of human orexin-2 receptor (O43614 whole entry): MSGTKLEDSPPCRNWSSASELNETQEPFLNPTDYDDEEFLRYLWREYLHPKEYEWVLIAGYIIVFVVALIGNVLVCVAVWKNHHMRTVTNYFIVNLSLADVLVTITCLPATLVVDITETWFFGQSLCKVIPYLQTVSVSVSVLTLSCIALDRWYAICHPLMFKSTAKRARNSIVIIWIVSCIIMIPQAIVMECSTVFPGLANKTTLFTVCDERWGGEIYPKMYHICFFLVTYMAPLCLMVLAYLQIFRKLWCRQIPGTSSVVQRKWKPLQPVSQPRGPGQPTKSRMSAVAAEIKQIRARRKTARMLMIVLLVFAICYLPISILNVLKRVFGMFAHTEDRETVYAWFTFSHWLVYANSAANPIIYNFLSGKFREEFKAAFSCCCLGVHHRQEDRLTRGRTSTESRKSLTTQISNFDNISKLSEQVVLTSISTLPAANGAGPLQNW
In short: as §1

Sequence of human orexin-1 receptor (O43613 whole entry): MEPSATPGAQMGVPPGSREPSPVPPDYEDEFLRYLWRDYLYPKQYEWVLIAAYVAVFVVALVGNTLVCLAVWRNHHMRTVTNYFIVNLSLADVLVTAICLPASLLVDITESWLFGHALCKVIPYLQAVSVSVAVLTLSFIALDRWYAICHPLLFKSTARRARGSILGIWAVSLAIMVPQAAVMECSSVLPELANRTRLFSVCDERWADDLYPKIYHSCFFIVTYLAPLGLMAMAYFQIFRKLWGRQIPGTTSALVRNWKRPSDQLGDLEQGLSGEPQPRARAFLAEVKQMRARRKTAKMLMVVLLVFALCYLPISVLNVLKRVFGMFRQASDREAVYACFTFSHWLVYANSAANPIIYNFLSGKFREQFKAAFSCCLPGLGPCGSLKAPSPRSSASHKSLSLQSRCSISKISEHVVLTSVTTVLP

IC50 (human orexin-1 receptor) | IC50 (human orexin-2 receptor) | Structure (SMILES)
113 nM | 202 nM | COc1ccc(-n2nccn2)c(C(=O)N2CCC[C@@]2(C)c2nc3cc(C)c(C)cc3[nH]2)c1F [Ex. 5.55]
12 nM | 15 nM | Cc1ccc(C(=O)N2CCC[C@@]2(C)c2nc3cc(C)c(C)cc3[nH]2)c(-n2nccn2)c1 [Ex. 5.56]
57 nM | 55 nM | COc1cc(C(=O)N2CCC[C@@]2(C)c2nc3cc(C)c(C)cc3[nH]2)c(-n2nccn2)cc1OC [Ex. 5.57]
3 nM | 6 nM | Cc1cc(C(=O)N2CCC[C@@]2(C)c2nc3cc(C)c(C)cc3[nH]2)c(-n2nccn2)cc1C [Ex. 5.58]
156 nM | 54 nM | Cc1cc2nc([C@]3(C)CCCN3C(=O)c3cc(F)ccc3-n3nccn3)[nH]c2cc1C [Ex. 5.60]
112 nM | 26 nM | Cc1cc2nc([C@]3(C)CCCN3C(=O)c3ccccc3-n3nccn3)[nH]c2cc1C [Ex. 5.61]
17 nM | 19 nM | COc1cc2nc([C@]3(C)CCCN3C(=O)c3cc(Cl)ccc3-n3nccn3)[nH]c2cc1OC [Ex. 5.64]
200 nM | 154 nM | COc1cc2nc([C@]3(C)CCCN3C(=O)c3cc(F)ccc3-n3nccn3)[nH]c2cc1OC [Ex. 5.65]
872 nM | 458 nM | COc1cc2nc([C@]3(C)CCCN3C(=O)c3c(F)cccc3-n3nccn3)[nH]c2cc1OC [Ex. 5.66]
141 nM | 150 nM | COc1cc2nc([C@]3(C)CCCN3C(=O)c3c(-n4nccn4)ccc(C)c3F)[nH]c2cc1OC [Ex. 5.68]
414 nM | 1200 nM | COc1cc2nc([C@]3(C)CCCN3C(=O)c3c(-n4nccn4)ccc(OC)c3F)[nH]c2cc1OC [Ex. 5.69]
31 nM | 83 nM | COc1cc2nc([C@]3(C)CCCN3C(=O)c3ccc(C)cc3-n3nccn3)[nH]c2cc1OC [Ex. 5.70]
56 nM | 22 nM | COc1cc2nc([C@]3(C)CCCN3C(=O)c3cc(C(F)(F)F)ccc3-n3nccn3)[nH]c2cc1OC [Ex. 5.71]
19 nM | 16 nM | COc1cc2nc([C@]3(C)CCCN3C(=O)c3cc(C)c(C)cc3-n3nccn3)[nH]c2cc1OC [Ex. 5.72]
98 nM | 57 nM | COc1cc2nc([C@]3(C)CCCN3C(=O)c3ccccc3-n3nccn3)[nH]c2cc1OC [Ex. 5.73]
64 nM | 153 nM | COc1ccc(-c2sc(C)nc2C(=O)N2CCC[C@@]2(C)c2nc3cc(OC)c(OC)cc3[nH]2)cn1 [Ex. 5.77]
258 nM | 130 nM | COc1cc2nc([C@]3(C)CCCN3C(=O)c3ccccc3-n3cccn3)[nH]c2cc1OC [Ex. 5.81]
27 nM | 15 nM | COc1cc2nc([C@]3(C)CCCN3C(=O)c3cc(C)ccc3-n3cccn3)[nH]c2cc1OC [Ex. 5.82]
426 nM | 104 nM | COc1cc2nc([C@]3(C)CCCN3C(=O)c3nc(C)ccc3-n3cccn3)[nH]c2cc1OC [Ex. 5.83]
138 nM | 76 nM | COc1cc2nc([C@]3(C)CCCN3C(=O)c3cc(OC(F)(F)F)ccc3-n3nccn3)[nH]c2cc1OC [Ex. 5.84]
316 nM | 114 nM | COc1cc2nc([C@]3(C)CCCN3C(=O)c3nc(C)ccc3-n3nccn3)[nH]c2cc1OC [Ex. 5.85]
94 nM | 85 nM | COc1cc(C(=O)N2CCC[C@@]2(C)c2nc3cc(OC)c(OC)cc3[nH]2)c(-n2nccn2)cc1OC [Ex. 5.86]
148 nM | 119 nM | COc1cc2nc([C@]3(C)CCCN3C(=O)c3cnc(C)nc3-c3cccc(C)c3)[nH]c2cc1OC [Ex. 5.89]

Second part, the compound before the results:

Structure (SMILES) | IC50 (human orexin-1 receptor) | IC50 (human orexin-2 receptor)
COc1ccc(-n2nccn2)c(C(=O)N2CCC[C@@]2(C)c2nc3cc(C)c(C)cc3[nH]2)c1 [Ex. 5.54] | 33 nM | 20 nM
Cc1ccc(-n2cccn2)c(C(=O)N2CCC[C@@]2(C)c2nc3cc(C)c(C)cc3[nH]2)c1 [Ex. 5.59] | 42 nM | 84 nM
Cc1ccc(-n2nccn2)c(C(=O)N2CCC[C@@]2(C)c2nc3cc(C)c(C)cc3[nH]2)n1 [Ex. 5.62] | 35 nM | 130 nM
COc1cc2nc([C@]3(C)CCCN3C(=O)c3nc(C)sc3-c3ccc(C(F)(F)F)cc3)[nH]c2cc1OC [Ex. 5.74] | 592 nM | 414 nM
COc1cc2nc([C@]3(C)CCCN3C(=O)c3sc(C)nc3-c3ccc(C)cc3)[nH]c2cc1OC [Ex. 5.75] | 300 nM | 126 nM
COc1cc2nc([C@]3(C)CCCN3C(=O)c3nc(C)sc3-c3cc(F)cc(F)c3)[nH]c2cc1OC [Ex. 5.76] | 33 nM | 47 nM
COc1cc2nc([C@]3(C)CCCN3C(=O)c3nc(C)sc3-c3ccc(F)cc3)[nH]c2cc1OC [Ex. 5.78] | 31 nM | 72 nM
COc1cc2nc([C@]3(C)CCCN3C(=O)c3nc(C)sc3-c3ccc(Cl)cc3)[nH]c2cc1OC [Ex. 5.79] | 43 nM | 97 nM
COc1cc2nc([C@]3(C)CCCN3C(=O)c3ncsc3-c3cccc(Cl)c3)[nH]c2cc1OC [Ex. 5.80] | 548 nM | 360 nM
COc1cc2nc([C@]3(C)CCCN3C(=O)c3ccccc3-c3cccc(C)c3)[nH]c2cc1OC [Ex. 5.87] | 203 nM | 157 nM
COc1cc2nc([C@]3(C)CCCN3C(=O)c3ccccc3-c3ccc(C)cc3)[nH]c2cc1OC [Ex. 5.88] | 192 nM | 166 nM
COc1cc2nc([C@]3(C)CCCN3C(=O)c3cncnc3-c3ccccc3)[nH]c2cc1OC [Ex. 5.90] | 232 nM | 473 nM
Cc1ccc(-c2ccc(F)cc2C)c(C(=O)N2CCC[C@@]2(C)c2nc3cc(C)c(C)cc3[nH]2)c1 [Ex. 5.91] | 217 nM | 1290 nM
COc1ccccc1-c1ccc(C)cc1C(=O)N1CCC[C@@]1(C)c1nc2cc(C)c(C)cc2[nH]1 [Ex. 5.92] | 62 nM | 177 nM
COc1cccc(-c2ccc(C)cc2C(=O)N2CCC[C@@]2(C)c2nc3cc(C)c(C)cc3[nH]2)c1 [Ex. 5.93] | 15 nM | 19 nM
COc1ccc(-c2ccc(C)cc2C(=O)N2CCC[C@@]2(C)c2nc3cc(C)c(C)cc3[nH]2)cc1 [Ex. 5.94] | 14 nM | 37 nM
Cc1ccc(-c2ccccc2F)c(C(=O)N2CCC[C@@]2(C)c2nc3cc(C)c(C)cc3[nH]2)c1 [Ex. 5.95] | 11 nM | 29 nM
Cc1ccc(-c2ccc(F)cc2)c(C(=O)N2CCC[C@@]2(C)c2nc3cc(C)c(C)cc3[nH]2)c1 [Ex. 5.96] | 13 nM | 32 nM
Cc1ccc(-c2cccc(F)c2)c(C(=O)N2CCC[C@@]2(C)c2nc3cc(C)c(C)cc3[nH]2)c1 [Ex. 5.97] | 6 nM | 11 nM

Structure (SMILES) | IC50 (human orexin-1 receptor) | IC50 (human orexin-2 receptor)
Cc1ccc(-c2ccccc2C)c(C(=O)N2CCC[C@@]2(C)c2nc3cc(C)c(C)cc3[nH]2)c1 [Ex. 5.98] | 120 nM | 264 nM
Cc1cccc(-c2ccc(C)cc2C(=O)N2CCC[C@@]2(C)c2nc3cc(C)c(C)cc3[nH]2)c1 [Ex. 5.99] | 6 nM | 11 nM
Cc1ccc(-c2ccc(C)cc2C(=O)N2CCC[C@@]2(C)c2nc3cc(C)c(C)cc3[nH]2)cc1 [Ex. 5.100] | 17 nM | 27 nM
COc1cccc(-c2ccccc2C(=O)N2CCC[C@@]2(C)c2nc3cc(C)c(C)cc3[nH]2)c1 [Ex. 5.101] | 59 nM | 54 nM
COc1ccc(-c2ccccc2C(=O)N2CCC[C@@]2(C)c2nc3cc(C)c(C)cc3[nH]2)cc1 [Ex. 5.102] | 34 nM | 82 nM
Cc1cc2nc([C@]3(C)CCCN3C(=O)c3ccccc3-c3ccccc3F)[nH]c2cc1C [Ex. 5.103] | 46 nM | 70 nM
Cc1cc2nc([C@]3(C)CCCN3C(=O)c3ccccc3-c3ccc(F)cc3)[nH]c2cc1C [Ex. 5.104] | 92 nM | 97 nM
Cc1cc2nc([C@]3(C)CCCN3C(=O)c3ccccc3-c3cccc(F)c3)[nH]c2cc1C [Ex. 5.105] | 24 nM | 28 nM
Cc1cccc(-c2ccccc2C(=O)N2CCC[C@@]2(C)c2nc3cc(C)c(C)cc3[nH]2)c1 [Ex. 5.106] | 25 nM | 37 nM
Cc1ccc(-c2ccccc2C(=O)N2CCC[C@@]2(C)c2nc3cc(C)c(C)cc3[nH]2)cc1 [Ex. 5.107] | 58 nM | 53 nM
Cc1ccc(-c2ccc(F)cc2C)c(C(=O)N2CCC[C@@]2(C)c2nc3c(C)c(C)ccc3[nH]2)c1 [Ex. 5.108] | 265 nM | 161 nM
Cc1ccc(-c2cccc(F)c2)c(C(=O)N2CCC[C@@]2(C)c2nc3c(C)c(C)ccc3[nH]2)c1 [Ex. 5.109] | 3 nM | 4 nM
COc1cccc(-c2ccc(C)cc2C(=O)N2CCC[C@@]2(C)c2nc3c(C)c(C)ccc3[nH]2)c1 [Ex. 5.110] | 13 nM | 14 nM
Cc1cccc(-c2ccc(C)cc2C(=O)N2CCC[C@@]2(C)c2nc3c(C)c(C)ccc3[nH]2)c1 [Ex. 5.111] | 5 nM | 7 nM
COc1ccc(-c2ccc(C)cc2C(=O)N2CCC[C@@]2(C)c2nc3c(C)c(C)ccc3[nH]2)cc1 [Ex. 5.112] | 12 nM | 16 nM
Cc1ccc(-c2ccc(C)cc2C(=O)N2CCC[C@@]2(C)c2nc3c(C)c(C)ccc3[nH]2)cc1 [Ex. 5.113] | 12 nM | 15 nM
Cc1ccc(-c2ccccc2F)c(C(=O)N2CCC[C@@]2(C)c2nc3c(C)c(C)ccc3[nH]2)c1 [Ex. 5.114] | 10 nM | 21 nM
Cc1ccc(-c2ccc(F)cc2)c(C(=O)N2CCC[C@@]2(C)c2nc3c(C)c(C)ccc3[nH]2)c1 [Ex. 5.115] | 22 nM | 18 nM
Cc1ccc2[nH]c([C@]3(C)CCCN3C(=O)c3ccccc3-c3cccc(F)c3)nc2c1C [Ex. 5.116] | 39 nM | 19 nM
